Measurements as given in patent US12275744B2, “Pyrazole and imidazole derivatives, compositions and methods as orexin antagonists” (HAGER BIOSCIENCES, LLC, priority 2019, dated 2025).

Tests used:
[1] = molecular target: T1, human orexin-1 receptor (Homo sapiens, UniProt O43613); assay: Intracellular calcium measurement (FLIPR), antagonism of orexin-A response in CHO cells expressing OX1R; settings: for inhibition at 1 µM: CHO, read-out: % Inhibition of OX1R @1 uM compound
T1 sequence (O43613 1-425): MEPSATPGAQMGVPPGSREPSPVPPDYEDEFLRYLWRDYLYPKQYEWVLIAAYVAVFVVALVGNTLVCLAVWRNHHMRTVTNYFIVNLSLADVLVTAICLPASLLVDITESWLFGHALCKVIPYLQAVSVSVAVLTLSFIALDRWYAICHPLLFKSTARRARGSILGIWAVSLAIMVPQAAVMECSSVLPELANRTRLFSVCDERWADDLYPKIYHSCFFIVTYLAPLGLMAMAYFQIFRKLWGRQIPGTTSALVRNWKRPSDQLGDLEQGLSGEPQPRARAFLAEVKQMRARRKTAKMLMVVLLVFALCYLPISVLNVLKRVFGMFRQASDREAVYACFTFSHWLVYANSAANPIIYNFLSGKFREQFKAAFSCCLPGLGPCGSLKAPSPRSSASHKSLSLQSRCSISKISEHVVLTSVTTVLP
Procedure: (§1) In Vitro Assay: Intracellular Calcium Measurements:
(§2) Chinese hamster ovary (CHO) cells expressing the human orexin-1 receptor and the human orexin-2 receptor, respectively, are grown in culture medium (Ham F-12 with L-Glutamine) containing 300 μg/mL G418, 100 U/mL penicillin, 100 μg/mL streptomycin and 10% heat inactivated fetal calf serum (FCS). The cells are seeded at 20,000 cells/well into 384-well black clear bottom sterile plates (Greiner). The seeded plates are incubated overnight at 37° C. in 5% CO2.
(§3) Within the Fluorescent Imaging Plate Reader (FLIPR Tetra, Molecular Devices), antagonists are added to the plate in a volume of 10 μL/well, incubated for 120 min and finally 10 μL/well of agonist is added. Fluorescence is measured for each well at 1 second intervals, and the height of each fluorescence peak is compared to the height of the fluorescence peak-induced by 3 nM orexin-A with vehicle in place of antagonist. […] Optimized conditions were achieved by adjustment of pipetting speed and cell splitting regime. The calculated IC50 values may fluctuate depending on the daily cellular assay performance.

[2] = molecular target: T2, human orexin-2 receptor (Homo sapiens, UniProt O43614); assay: Intracellular calcium measurement (FLIPR), antagonism of orexin-A response in CHO cells expressing OX2R; settings: for inhibition at 1 µM: CHO, read-out: % Inhibition of OX2R @1 uM compound
T2 sequence (O43614 1-444): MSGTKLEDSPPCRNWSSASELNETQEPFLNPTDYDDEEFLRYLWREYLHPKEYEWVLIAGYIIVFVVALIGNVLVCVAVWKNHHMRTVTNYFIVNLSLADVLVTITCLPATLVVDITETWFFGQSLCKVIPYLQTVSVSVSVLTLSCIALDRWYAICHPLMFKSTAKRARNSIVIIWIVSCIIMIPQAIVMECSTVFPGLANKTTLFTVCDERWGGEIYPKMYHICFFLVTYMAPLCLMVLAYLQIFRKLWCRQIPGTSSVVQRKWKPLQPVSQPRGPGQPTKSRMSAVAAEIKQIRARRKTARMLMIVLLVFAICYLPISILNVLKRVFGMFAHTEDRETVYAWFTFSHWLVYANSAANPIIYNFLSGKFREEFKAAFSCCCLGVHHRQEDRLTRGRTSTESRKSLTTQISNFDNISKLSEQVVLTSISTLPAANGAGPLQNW
Procedure: as §1, §2, §3

[3] = molecular target: T3, OX1R (Homo sapiens, UniProt O43613); settings: relative to Orexin B; Kodadek and Cai 2010; cited from earlier work
T3 sequence (O43613 1-425): T1 sequence (O43613 1-425)

Compound | IC50 [1] [µM] | Kb [1] [µM] | inhibition at 1 µM [1] [%] | inhibition at 1 µM [2] [%] | IC50 [2] [µM] | Kb [2] [µM] | affinity for OX1R, higher than Orexin B [3]
O=C(c1c(-c2ccccc2)nn2c1COCC2)N1CCC[C@H]1Cn1ccc(-c2ccccc2)n1 [Example 1] | 0.033 | 0.007 | 69.7 | 28.2 |  |  | 
O=C(c1c(-c2ccccc2)nn2c1COCC2)N1CCC[C@H]1CNc1ccc(C(F)(F)F)cn1 [Example 2] | 0.122 | 0.026 | 62.8 | 20.9 |  |  | 
CCc1cnc(NC[C@@H]2CCCN2C(=O)c2c(-c3ccccc3)nn3c2COCC3)nc1 [Example 3] |  |  | 14 | 14.2 |  |  | 
CCc1cnc(NC[C@@H]2[C@H](C)CCCN2C(=O)c2c(-c3ccccc3)nn3ccccc23)nc1 [Example 4] |  |  | 85.7 | 12.8 |  |  | 
CCc1cnc(NC[C@@H]2[C@H](C)CCCN2C(=O)c2c(-c3ccccc3)nn3c2COCC3)nc1 [Example 5] | 0.136 | 0.029 | 71 | 0.4 |  |  | 
C[C@@H]1CCCN(C(=O)c2c(-c3ccccc3)nn3ccccc23)[C@@H]1CNc1ccc(C(F)(F)F)cn1 [Example 6] | 0.008 | 0.0017 | 87.6 | 38.5 |  |  | 
C[C@@H]1CCCN(C(=O)c2c(-c3ccccc3)nn3c2COCC3)[C@@H]1CNc1ccc(C(F)(F)F)cn1 [Example 7] | 0.009 | 0.002 | 80.1 | 2.44 |  |  | 
C[C@@H]1CCCN(C(=O)c2c(-c3ccccc3)nc3ccccn23)[C@@H]1CNc1ccc(C(F)(F)F)cn1 [Example 8] | 0.005 | 0.001 | 86.1 | 13.8 |  |  | 
CCc1cnc(NC[C@@H]2[C@H](C)CCCN2C(=O)c2c(-c3ccccc3)nc3ccccn23)nc1 [Example 9] | 0.059 | 0.012 | 76.8 | -2.51 |  |  | 
O=C(c1c(-c2ccccc2)nn2ccccc12)N1CCC[C@H]1CNc1ccc(C(F)(F)F)cn1 [Example 10] | 0.0035 | 0.0007 | 86.9 | 43.5 |  |  | 
Orexin A: excitatory hypothalamic neuropeptide, a 33 amino acid peptide; endogenous ligand of OX1R and OX2R (QPLPDCCRQKTCSCRLYELLHGAGNHAAGILTL; Orexin-A; UniProt O43612 34-66, looked up) |  |  |  |  |  |  | about 100 fold

The next lines start with results.

IC50 [1] [µM] | Kb [1] [µM] | inhibition at 1 µM [1] [%] | inhibition at 1 µM [2] [%] | IC50 [2] [µM] | Kb [2] [µM] | Compound | affinity for OX1R, higher than Orexin B [3]
0.039 | 0.008 | 67.1 | 21.6 |  |  | O=C(c1c(-c2ccccc2)nc2ccccn12)N1CCC[C@H]1CNc1ccc(C(F)(F)F)cn1 [Example 11] | 
0.002 | 0.0005 | 88.9 | 46.1 |  |  | O=C(c1c(-c2ccccc2)nc2ccccn12)N1CCC[C@H]1Cn1ccc(-c2ccccc2)n1 [Example 12] | 
 |  | 96.6 | 78.5 | 0.07 | 0.009 | O=C(c1c(-c2ccccc2)nn2ccccc12)N1CCC[C@H]1Cn1ccc(-c2ccccc2)n1 [Example 13] | 
 |  | 14.8 | 18.3 |  |  | CCc1cnc(NC[C@@H]2CCCN2C(=O)c2c(-c3ccccc3)nc3ccccn23)nc1 [Example 14] | 
0.178 | 0.037 | 54.1 | 37.3 |  |  | CCc1cnc(NC[C@@H]2CCCN2C(=O)c2c(-c3ccccc3)nn3ccccc23)nc1 [Example 15] | 
 |  | 0.59 | 7.77 |  |  | CCc1cnc(OC[C@@H]2CCCN2C(=O)c2c(-c3ccccc3)nn3c2COCC3)nc1 [Example 16] | 
 |  | 45.1 | 5.78 |  |  | O=C(c1c(-c2ccccc2)nn2c1COCC2)N1CCC[C@H]1COc1ccc(C(F)(F)F)cn1 [Example 17] | 
0.293 | 0.062 | 70 | 29.6 |  |  | O=C(c1c(-c2ccccc2)nc2ccccn12)N1CCC[C@H]1COc1ccc(C(F)(F)F)cn1 [Example 18] | 
 |  | -10.8 | 11.2 |  |  | CCc1cnc(OC[C@@H]2CCCN2C(=O)c2c(-c3ccccc3)nc3ccccn23)nc1 [Example 19] | 
0.011 | 0.002 | 84.9 | 49.6 |  |  | O=C(c1c(-c2ccccc2)nn2ccccc12)N1CCC[C@H]1COc1ccc(C(F)(F)F)cn1 [Example 20] | 
 |  | 38.8 | 26.9 |  |  | CCc1cnc(OC[C@@H]2CCCN2C(=O)c2c(-c3ccccc3)nn3ccccc23)nc1 [Example 21] | 
